Measured values from PubChem BioAssay (NCI).
Several values for one entry are separate records, joined by “and”; a condition that tells them apart may be missing. Equal values may be shown once.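 48-hour exposure; five concentrations; linearly interpolated endpoints. Abbreviation: GI50, concentration required for 50% inhibition of growth. At the TGI there is no net growth.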

Tests used:
Assay in all cases: DTP human tumour cell line panel, 48 h
COLO 205 colon = test system: COLO 205 colon
UACC-62 melanoma = test system: UACC-62 melanoma
MDA-MB-435 = test system: MDA-MB-435
U251 CNS = test system: U251 CNS
LOX IMVI melanoma = test system: LOX IMVI melanoma
DU-145 prostate = test system: DU-145 prostate
UO-31 renal = test system: UO-31 renal
CAKI-1 renal = test system: CAKI-1 renal
HS 578T breast = test system: HS 578T breast
M14 melanoma = test system: M14 melanoma

SMILES | TGI (COLO 205 colon) | TGI (UACC-62 melanoma) | TGI (MDA-MB-435) | TGI (U251 CNS) | TGI (LOX IMVI melanoma) | TGI (DU-145 prostate) | TGI (UO-31 renal) | TGI (CAKI-1 renal) | TGI (HS 578T breast) | TGI (M14 melanoma) | GI50 (COLO 205 colon) | GI50 (UACC-62 melanoma) | GI50 (MDA-MB-435) | GI50 (U251 CNS) | GI50 (LOX IMVI melanoma) | GI50 (DU-145 prostate) | GI50 (UO-31 renal) | GI50 (CAKI-1 renal) | GI50 (HS 578T breast) | GI50 (M14 melanoma)
O=C(O)C(Br)C(Br)C(=O)O (centres undefined) | > 100 µM | > 100 µM | > 100 µM | > 100 µM | > 100 µM | > 100 µM | > 100 µM | > 100 µM | > 100 µM | > 100 µM | – | – | – | – | – | – | – | – | – | –
COc1ccc(-c2nsc3c2NC(=O)CC3c2ccc3c(c2)OCCO3)cc1 (centres undefined) | 2.18 µM | > 100 µM | 0.438 µM | > 100 µM | > 100 µM | > 21.6 µM | > 100 µM | > 100 µM | > 100 µM | > 100 µM | 0.431 µM | 0.482 µM | 0.173 µM | 0.5 µM | 0.601 µM | 1.07 µM | 2.19 µM | 0.429 µM | 0.398 µM | 0.397 µM
O=C1NC(O)c2ccccc2O1 (centres undefined) | > 100 µM | > 100 µM | > 100 µM | > 100 µM | > 100 µM | > 100 µM | > 100 µM | > 100 µM | > 100 µM | > 100 µM | – | – | – | – | – | – | – | – | – | –
C=C1C(=O)O[C@H]2[C@H]1CC/C(Cn1cc(Cc3c[nH]c4ccccc34)nn1)=C\CC[C@@]1(C)O[C@@H]21 | 3.75 µM | 3.13 µM | 3.46 µM | 3.63 µM | 3.03 µM | 2.88 µM | 2.86 µM | 2.64 µM | 18.3 µM | 3.07 µM | 1.83 µM | 1.66 µM | 1.73 µM | 1.89 µM | 1.55 µM | 1.54 µM | 1.49 µM | 1.3 µM | 3.88 µM | 1.31 µM
COc1cccc(-n2ncc3c(N/N=C/c4ccc(C)cc4)ncnc32)c1 | > 25 µM | > 25 µM | > 25 µM | > 25 µM | > 25 µM | > 25 µM | > 25 µM | > 25 µM | > 25 µM | > 25 µM | 9.56 µM | > 25 µM | > 22.4 µM | > 25 µM | > 25 µM | > 25 µM | > 25 µM | > 25 µM | > 17.4 µM | > 25 µM
C/C(=N\NC(=O)CC#N)C(CN1CCCCC1)C(c1ccccc1)c1c(O)c2ccccc2oc1=O (centres undefined) | 32.6 µM | > 100 µM | > 100 µM | > 100 µM | 40.1 µM | > 100 µM | > 100 µM | > 100 µM | > 100 µM | > 100 µM | – | – | – | – | – | – | – | – | – | –
C[C@]12CC[C@@H]3c4ccc(O)cc4CC[C@H]3[C@@H]1CC[C@@H]2NS(=O)(=O)c1cccc(Cl)c1 | 3.31 µM | 4.84 µM | 8.7 µM | 5.48 µM | 3.4 µM | 14.9 µM | 8.75 µM | 10.6 µM | 13.1 µM | 6.35 µM | 1.81 µM | 1.86 µM | 2.63 µM | 2.26 µM | 1.75 µM | 4.17 µM | 2.01 µM | 2.97 µM | 3.09 µM | 2.34 µM
COC1(OC)C2(Cl)C(Cl)=C(Cl)C1(Cl)C1c3ccc(C(C)=O)c4cccc(c34)C12 (centres undefined) | 34.8 µM | > 100 µM | 43.5 µM | 99.9 µM | > 100 µM | > 100 µM | > 100 µM | > 100 µM | > 100 µM | > 96.4 µM | – | – | – | – | – | – | – | – | – | –
COc1cccc(Sc2ccc([N+](=O)[O-])c3no[n+]([O-])c23)c1 | 7.31 µM | 36 µM | 43.1 µM | 30.3 µM | 11.5 µM | 24.4 µM | 7.74 µM | 24.1 µM | 61.7 µM | 33.9 µM | 2.49 µM | 13.7 µM | 13.4 µM | 13.1 µM | 3.38 µM | 11.3 µM | 2.27 µM | 10.5 µM | 16.2 µM | 14.3 µM
O=C1C=C2C=CC3CC2(O1)C1CCCCN31 (centres undefined) | 73.5 µM and 29.3 µM and > 100 µM | 42.3 µM and 30.1 µM and > 100 µM | 41.6 µM and 39.3 µM and 66.3 µM | 62 µM and 88.8 µM and > 100 µM | 44.4 µM and 42.8 µM and > 100 µM | 50.1 µM and 36.1 µM and > 100 µM | > 100 µM | 78.8 µM and 79.5 µM and > 100 µM | > 100 µM | > 100 µM | 21.6 µM and 15.1 µM and 58.7 µM | 15.8 µM and 13.9 µM and 57.1 µM | 10.1 µM and 8.06 µM and 22 µM | 20 µM and 27.7 µM and 60.9 µM | 17.7 µM and 18 µM and 53.3 µM | – | 14.5 µM and 13.8 µM and 38.3 µM | 17.7 µM and 22.3 µM and 43.3 µM | 67.8 µM and 29.3 µM and 63.3 µM | 28.1 µM and 24 µM and 54.4 µM
Cc1c(N)nc([C@H](CC(N)=O)NC[C@H](N)C(N)=O)nc1C(=O)N[C@H](C(=O)N[C@H](C)[C@@H](O)CC(=O)N[C@H](C(=O)NC(O[C@@H]1O[C@@H](C)[C@@H](N)[C@@H](O)[C@H]1O)C(O)c1nc(-c2nc(C(=O)NCCCCN)cs2)cs1)[C@@H](C)O)[C@@H](O[C@@H]1O[C@@H](CO)[C@@H](O)[C@H](O)[C@@H]1O[C@H]1O[C@H](CO)[C@@H](O)[C@H](OC(N)=O)[C@@H]1O)c1c[nH]cn1 (some centres undefined) | > 50 µM | > 50 µM | > 50 µM | > 50 µM | > 50 µM | > 50 µM | > 50 µM | > 50 µM | > 50 µM | > 50 µM | – | – | – | – | – | – | – | – | – | –
CC/C=C\C[C@H](O)C/C=C1/C(=O)C=C[C@@H]1C/C=C\CCCC(=O)OC(C)C | 3.87 µM | 3.16 µM | 2.7 µM | 1.74 µM | 0.41 µM | 11.9 µM | 3.84 µM | 10.3 µM | 41.2 µM | 3.17 µM | 1.79 µM | 1.37 µM | 0.572 µM | 0.48 µM | 0.18 µM | 3.05 µM | 1.84 µM | 2.51 µM | 5.21 µM | 0.79 µM
CCC#CC[C@H](O)C/C=C1/C(=O)C=C[C@@H]1C/C=C\CCCC(=O)OC | 2.86 µM | 2.82 µM | 5.92 µM | 1.99 µM | 1.54 µM | 7.26 µM | 1.66 µM | 4.65 µM | 46.6 µM | 5.12 µM | 1.14 µM | 1.04 µM | 1.5 µM | 0.695 µM | 0.754 µM | 1.75 µM | 0.864 µM | 1.48 µM | 4.3 µM | 1.32 µM
